This is an account of results in patent US20200129514A1, “JAK INHIBITION AS A NOVEL THERAPY FOR PREVENTING TUMORS IN PEUTZ-JEGHERS SYNDROME” (Curingenetics, LLC, priority 2018, published 2020).

In test [1] the test system is Lkb1FspKO/FspKO mice (PJS polyps). The experiment in a line: Ruxolitinib-containing chow treatment of Lkb1FspKO/FspKO mice, tumor burden after six weeks.
The next test deals with Stat3. As to the kind of experiment: Stat3 activation in primary epithelial crypts incubated with recombinant cytokine. The test is classed as cell-based. The settings on record: primary epithelial crypts isolated from mouse small intestine. The procedure: (§1) IL-11 signaling is mediated via its binding to the transmembrane receptor Gp130, resulting in activation of the Jak-Stat and MAPK pathways. Of these, the induction of Jak-Stat3 activation appears most critical in GI tumorigenesis. To investigate whether IL-11 is sufficient to induce Stat3 activation in isolated wild-type epithelium, we incubated primary epithelial crypts isolated from mouse small intestine with recombinant IL-11. […] Next, we addressed whether Stat3-dependent transcriptional changes observed in polyps can be induced by IL-11 in primary epithelial organoid cultures. We focused our analysis in Reg3b, Reg3g and Lrg1 genes due to their reported expression in inflammatory epithelium in a Stat3-dependent manner and overexpression in PJS model polyps (Supplemental FIG. 6D, Supplemental Table 3).

In test [2] the test system is Reg3b, Reg3g and Lrg1 expression. As to the kind of experiment: Induction of Stat3-dependent genes in primary epithelial organoid cultures. Format: cell-based. The method, then:
as §1

In the case of `N#CC[C@H](C1CCCC1)n1cc(-c2ncnc3[nH]ccc23)cn1` [ruxolitinib, Ruxolitinib], in test [1] (ruxolitinib chow 2 g/kg, 6/11 treated mice, all non-treated mice developed polyps), the tumor-free mice is reported as 55%. Also, in test [1] (ruxolitinib chow, 2.51 in non-treated, p=0.082, not significant), the average polyp diameter is given as 1.68 mm. In test [1] (ruxolitinib chow, 6.54 in non-treated), this molecule showed an average tumor number of 1.27. This molecule also came in with an average tumor area in test [1] (ruxolitinib chow, 47.4 in non-treated) of 3.58 mm2.

On to “IL-6: IL-6 cytokine used as comparator for Stat3 activation”, for which the “activation of Stat3” value with Stat3 is on record as “comparably”.

B1: IL-11: recombinant IL-11, an IL-6 family cytokine signalling via Gp130 (protein, UniProt P20809 22-199, looked up)
Interleukin-11: PGPPPGPPRVSPDPRAELDSTVLLTRSLLADTRQLAAQLRDKFPADGDHNLDSLPTLAMSAGALGALQLPGVLTRLRADLLSYLRHVQWLRRAGGSSLKTLEPELGTLQARLDRLLRRLQLLMSRLALPQPPPDPPAPPLAPPSSAWGGIRAAHAILGGLHLTLDWAVRGLLLLKTRL
As for B1, the “induction of Reg3b, Reg3g and Lrg1 expression” value in test [2] is “robust induction”. For the same molecule, the “activation of Stat3” value with Stat3 was “resulted in activation of Stat3”.
